# Measured values from patent publication US4256640A, “Tetrahydrothiopyrano[2,3-b]indole derivatives” (Shionogi & Co., Ltd., priority 1978, dated 1981).
# Where two headings read alike, the source gives them in different places.
# Tests used:
# SLC-Wistar female rats [1] = assay: Analgesic activity c: Randall and Selitto method; type: in vivo, rat; details: 2 h, read-out: Analgesic Activity c ED50
# Method: c. Randall and Selitto method A test compound is orally given SLC-Wistar female rats (150-170 g). Five minutes later 0.1 ml of 20% yeast suspension is subcutaneously injected into the plantar tissue of the foot.
# JCL-Wistar female rats = assay: Anti-inflammatory activity: carrageenin foot edema; type: in vivo; details: rat, oral, 50 mg/kg, 1.0% carrageenin, swelling 3 hours later
# Method: A 0.9% saline solution (0.05 ml) containing 1.0% carrageenin is used as phlogistic agent. After 30 minutes JCL-Wistar female rats (180-200 g) are orally administered a test compound, the phlogistic agent is injected subcutaneously into the plantar of the foots of the rats. The volume of swelling is measured 3 hours later and anti-edema activity is determined by calculating the percentage ratio of the edematous volume of medicated foot of that of non-medicated foot.
# [2] = Acute toxicity, oral, mice (LD50); details: in vivo, mouse, mortality at 72 hours, P = presumption
# Method: a. DS male mice (20-25 g) are orally administered a suspension of test compound with gum arabic. The mortality at 72 hours is determined and the LD50 is calculated.
# SLC-Wistar female rats [3] = assay: Analgesic activity b: foot-licking method; type: in vivo, rat; details: read-out: Analgesic Activity b ED50
# DS male mice = assay: Analgesic activity a: acetic acid writhing method; type: in vivo, mouse; details: read-out: Analgesic Activity a ED50
# Method: a. Acetic acid writing method
# DS male mice (20-23 g) are treated with an intraperitoneal injection of 0.1 ml/10 g of 0.6% acetic acid 30 minutes after oral administration of a test compound. The number of times of writhing for 10 minutes is counted and ED50 is calculated.
# [4] = Acute toxicity, oral, rats (LD50); details: in vivo, rat, mortality on the 15th day
# Method: b. JCL-Wistar female rats (180-220 g) are orally administered a suspension of test compound with gum arabic. The mortality on the 15th day is determined and the LD50 is calculated.
# [5] = rat, oral, 5 min before 20% yeast s.c. in foot, pain threshold at 120 minutes
# [6] = rat, oral, 30 min before 3.7% formaldehyde s.c. in hind-paw, foot-licking for 50 minutes
# [7] = mouse, oral, 30 min before 0.6% acetic acid i.p., writhing counted for 10 minutes
SMILES,ED50 (SLC-Wistar female rats [1]; [5]) [mg/kg],Anti-inflammatory Activity (JCL-Wistar female rats) [%],LD50 at 72 h [2] [mg/kg],ED50 (SLC-Wistar female rats [3]; [6]) [mg/kg],ED50 (DS male mice; [7]) [mg/kg],LD50 at 360 h [4] [mg/kg],ED50 (SLC-Wistar female rats [1]; po) [mg/kg],"ED50 (SLC-Wistar female rats [3]; Rattus norvegicus, po) [mg/kg]","ED50 (DS male mice; Mus musculus, po) [mg/kg]"
"CNCC1CCSc2[nH]c3ccccc3c21 (stereo not shown) [Comp. 1, 4-Methylaminomethyl-2,3,4,9-tetrahydrothiopyrano[2,3-b]indole]",8.4,66,409,1.6,4.2,295,,,
"CNCC1CCSc2c1c1ccccc1n2C (stereo not shown) [Comp. 2, 9-Methyl-4-methylaminomethyl-2,3,4,9-tetrahydrothiopyrano[2,3-b]indole]",17.8,40,~750,0.54,21.2,,,,
"CNCC1CCS(=O)(=O)c2[nH]c3ccccc3c21 (stereo not shown) [Comp. 3, 4-Methylaminomethyl-2,3,4,9-tetrahydrothiopyrano[2,3-b]indole S-dioxide]",19.1,25,~750,2.9,11.7,,,,
CC(=O)n1c2c(c3ccccc31)C(CN(C)C)CCS2 (stereo not shown) [Comp. 4],15.9,44,~175,4.7,21,,,,
"COc1ccc2c(c1)c(CC(=O)O)c(C)n2C(=O)c1ccc(Cl)cc1 [Idomethacin, reference compound]",,,17,,,14,14,65,7
"COc1cc(C)nc(-n2nc(C)cc2OC)n1 [Mepirizole, reference compound]",130,,1150,13,110,552,,,
